Results on two compounds are retold here after patent US11759480B2, “Compositions and methods for CAR T cell therapy” (ENDOCYTE, INC., priority 2017, dated 2023).

Data set [1] concerns MDA-MB-231 solid tumor xenografts. The experiment in a line: Control of CAR T cell activation in vivo: break, FA competitor or both (Example 19). As to conditions: 15×10^6 CAR T cells + FITC-Folate 500 nmole/kg every other day. How it is done: Five study groups were designed to test whether anti-FITC CAR T cell activation can be controlled via temporal termination of FITC-ligands, by administering a competitor small molecule, or a combination approach of both discontinuing of FITC-ligands and/or administering an FA competitor. The first group was treated by administering anti-FITC CAR T cell with phosphate-buffered saline (PBS) as a negative control. Every other day over the course of the study, the second, third, fourth and fifth groups were treated with anti-FITC CAR T cell mixed with FITC-Folate (500 nmole/kg). […] Mouse bodyweight was measured regularly to test for toxicity.

Data set [2] relates to MDA-MB-231 tumors. The experiment in a line: IFN-γ in blood versus EC17 dose level and presence of tumor (Example 24). It counts as in vivo, mice. Conditions: 10 days after CAR-T injection, EC17 three times per week. How it is done:
CAR-T cells were injected into naïve mice (8 million per mouse) and mice bearing MDA-MB-231 tumors (5 million per mouse). Various levels of EC17 were administrated three times per week. IFN-γ in blood was measured 10 days after CAR-T cell injection.

The subject of data set [3] is MDA-MB-231 tumor. The experiment in a line: CAR-T anti-tumor activity and toxicity at different EC17 dose levels (Example 27). In kind it is in vivo. How it is done:
Immunodeficient NSG mice (Jackson Laboratory) were used to study CAR T cell anti-tumor activity and its toxicity in the presence of different EC17 dose levels. MDA-MB-231 tumor cells were used to establish subcutaneous solid tumor xenografts. When tumor volume of around 100-150 mm^3 was reached, various concentrations of EC17 were pre-injected 4 hours before i.v. injection of 10 million CAR-T cells. Various concentrations of EC17 were then administrated three times per week after the initial EC17 and CAR-T cell injections. The negative control group was injected with 500 nmol/kg EC17 (4 hour in advance) and […] unmodified T cells. 500 nmol/kg EC17 was then administrated three times per week after initial injection. Tumor size and body weight were measured to monitor the anti-tumor activity and the toxicity. […] By adjusting the EC17 dose level, CAR-T anti-tumor activity can be maintained while the resulting body weight loss (toxicity) can be reduced. In FIGS. 20A and 20B, EC17 is also referred to as “adaptor” or “bi-specific adaptor”.

For data set [4], the system named is MDA-MB-231 tumors. The experiment in a line: EC17 pre-painting combined with delayed second EC17 dose (Example 30). It counts as in vivo, mice. How it is done:
FITC-CAR-T related toxicity (e.g. sCRS) can be reduced by the combination of EC17 pre-painting and the delay of EC17 dosing post CAR-T administration. To explore strategies to control therapy-related toxicity, the combination of the EC17 pre-painting and EC17 dosing schedule optimization was evaluated. Mice bearing MDA-MB-231 tumors (100-200 mm3) were divided into three groups. Mice in group #1 (no EC17 pre-painting) were administered with 8 million FITC-CAR-T cells through the tail vein, and 500 nmol/kg EC17 was then dosed as a single dose per week (at days 2, 9, 16, etc.) post CAR-T administration. Mice in group #2 (EC17 4 hour pre-painting) were pre-painted with 500 nmol/kg EC17 4 hours before the administration of 8 million CAR-T cells, and 500 nmol/kg EC17 was then dosed as a single dose per week post CAR-T administration. Mice in group #3 (EC17 4 hour pre-painting+delayed second EC17 dose) were also pre-painted with 500 nmol/kg EC17 4 hours before the administration of 8 million CAR-T cells, but the second dose of 500 nmol/kg EC17 was postponed until 7 days after CAR-T administration, and the single dose per week schedule of EC17 dosing was then followed. Three days after CAR-T administration, mice in the three groups were evaluated by visual observation.

In data set [5] the test system is MDA-MB-231 tumors. The experiment in a line: FITC-CAR-T cell proliferation in vivo versus EC17 dose (Example 36). Set-up: species or system NSG mice. How it is done:
To evaluate whether the bridge dose can control CAR-T proliferation in vivo, NSG mice bearing MDA-MB-231 tumors (250-500 mm3) were divided into 4 groups and dosed with 0, 5, 50, or 500 nmol/kg of body weight of EC17 respectively (as shown in FIG. 40A). Four hours later, the four groups were administered with 5 million FITC-CAR-T cells which were cultured in vitro for 11 days, while one group of mice pre-dosed with 500 nmol/kg EC17 was not dosed with CAR-T cells and was used as a “No CAR-T control”. […] Blood samples were then collected 16 hours post the second EC17 dose and analyzed for CAR-T numbers in blood circulation (FIG. 40B). […] The interpretation of this finding is that CAR-T cells proliferated more in mice dosed with 50 or 500 nmol/kg EC17 than in mice dosed with 5 nmol/kg EC17, so that the CAR-T counts in blood circulation were higher.
To further confirm that FITC-CAR-T proliferation is EC17 dose-dependent, we also evaluated CAR-T proliferation in vivo when CAR-Ts were given more time to settle down and proliferate. For this purpose, we examined CAR-T cell number in mice which were administered with CAR-T cells six days earlier and four doses of EC17 had been given to boost CAR-T proliferation in vivo. NSG mice bearing MDA-MB-231 tumors (250-500 mm3) were divided into 4 groups and dosed with 0, 5, 50, or 500 nmol/kg of body weight of EC17 respectively (as shown in FIG. 41A). Four hours later, all mice were administered with 5 million FITC-CAR-T cells which were cultured in vitro for 18 days. Various levels of EC17 were then dosed at days 1, 3, 5 post CAR-T administering to boost CAR-T proliferation. Mouse blood samples were collected 24 hours post the last EC17 dose, CAR-T cells in blood were stained with anti-human CD45 antibody and counted by FACS.

For data set [6], the system named is MDA-MB-231 tumors. Description: Comparison of three rescue reagents (Example 32).
Procedure: To evaluate whether mice with FITC-CAR-T therapy related sCRS can be rescued by using competitors which may displace EC17 from either FITC-CAR-T or FR+ tumor cells, 49 NSG mice bearing MDA-MB-231 tumors (150-250 mm3) were administered with excess FITC-CAR-T cells (8 million), 36 of them were then dosed with 500 nmol/kg EC17 48 hours post CAR-T administration, 6 of them were not dosed with EC17 and were used as “No EC17” control, and 7 of them were dosed with 260 umol/kg sodium fluorescein (no EC17 but Fluorescein) to test its toxicity. […] Each group was i.v. injected with 10 umol/kg of Leucovorin, or 10 umol/kg folic acid, or 260 umol/kg sodium fluorescein, or nothing as an un-rescued control. […] Mouse body weight changes were also monitored as the indication of toxicity. […] To evaluate whether the rescue injections affect the anti-tumor activity of FITC-CAR-T cells, these mice were dosed with 500 nmol/kg EC17 twice per week (days 9, 11, 15, 18, 22, 25, etc.) and the tumor size was monitored.

Take `Nc1nc2ncc(CNc3ccc(C(=O)NC(CCC(=O)NCCNC(=S)Nc4ccc(-c5c6ccc(=O)cc-6oc6cc(O)ccc56)c(C(=O)O)c4)C(=O)O)cc3)nc2c(=O)[nH]1` (stereo not drawn) [EC17, FITC-Folate]: the “weight loss (serious CAR T cell mediated toxicity)” value in data set [1] is > 10%. Besides, the “cytokine production (IFN-γ in blood)” value in data set [2] is “dependent on both the bridge (EC17) dose level and the presence of the tumor”. Also, the “toxicity (body weight loss)” value in data set [3] (20 nmol/kg TIW) is reported as “least toxicity”; in data set [3] (500 nmol/kg TIW), “strongest toxicity”. In data set [3] (500, 100 or 20 nmol/kg TIW, 10 million CAR-T), the tumor outcome is reported as “all eliminated”. Besides, the anti-tumor outcome in data set [4] (all three groups) is listed as “complete responses”. Further, the “sCRS by visual observation” value is on record as “the worst sCRS” in data set [4] (group #1 no pre-painting, three days after CAR-T); “sCRS but less severe” in data set [4] (group #2 EC17 4 hour pre-painting); “didn't show sCRS” in data set [4] (group #3 EC17 4 hour pre-painting + delayed second EC17 dose). For the same compound, the “CAR-T cells in blood versus 0 nmol/kg EC17” value in data set [5] (5 nmol/kg, day 3) was “less CAR-T cells in their blood circulation”. In addition, the “CAR-T cells in blood” value in data set [5] (50 or 500 nmol/kg, day 3) is “more CAR-T cells in their blood circulation”. Moreover, the “EC17 dose with the highest CAR-T count” value in data set [5] (day 6, four EC17 doses) amounted to 50 nmol/kg.
With `O=C([O-])c1ccccc1-c1c2ccc(=O)cc-2oc2cc([O-])ccc12.[Na+].[Na+]` [sodium fluorescein], the “body weight loss compared to other rescue groups” value in data set [6] (260 umol/kg) was “least body weight loss”. The “order of sCRS severity (from worst to least)” value in data set [6] (10 hours after rescue, Leucovorin 10, folic acid 10, sodium fluorescein 260 umol/kg) was “no rescue group>leucovorin rescue group>folic acid rescue group>sodium fluorescein rescue group>no EC17 group”. The “mice with a tiny tumor left” value in data set [6] (day 36 post CAR T injection) was 2 out of 9.
